Data reported in patent US20230248744A1, “25-HYDROXYVITAMIN D2 AND/OR D3 FOR USE IN OBESITY” (CARBOGEN AMCIS B.V., priority 2020, published 2023).

Test: Calculated total uptake into blood and deposition of vitamin D3 from the blood level curves (FIG. 6)
Format: in vivo, human
Details: for amount of vitamin D3 deposited in the first 24 hours: assuming a total blood volume of 5 liters
Text: FIG. 6: The upper curves show the calculated total amounts of vitamin D3 arriving in blood of malabsorptive, obese and normal individuals. The lower curves show the experimental blood levels of vitamin D3 expressed in ng/mL of blood. The upper curves are as well expressed in ng/mL of blood, disregarding differing total blood volumes for malabsorptive, obese and normal individuals.
In order to further analyze the results, the shape of the concentration/time-curves describing the observed average blood levels of vitamin D3 was used to approximately calculate its total uptake into blood after dosage. The calculation was based on the assumptions compiled in the comments regarding FIG. 6. Metabolism in terms of the appearance of 25(OH)D3 which was experimentally determined in parallel to vitamin D3 can thereby be regarded as part of the immediately disappearing percentage of the total uptake into blood, and it is reasonable to assume that there is no other relevant metabolic step in this early phase, which has to be taken into account.
FIG. 6 presents the accordingly calculated total uptake and the experimentally determined levels of vitamin D3 for the first 24 hours after dosing. The difference between the upper (calculated) and the lower (experimental) curve represents the sum of metabolism and deposition. Herein the assumption is made that the elimination can be disregarded, because as known to the skilled person there is essentially no elimination of non-metabolized vitamin D3 from blood into urine. Metabolism in the first 24 hours results in all three cases (viz., malabsorptive, obese, and normal subjects) in the consumption of about 2 to 5 ng/mL, viz. a small part of the mentioned calculated difference (compare FIG. 7). No correction relating to said consumption seems necessary for determining the metabolite's observed concentration because the metabolite is rapidly forming a DBP-complex, characterized by a long half-life. However, the fact that the 25(OH)D3 formed must be determined as difference to baseline adds an element of uncertainty and the assumption that no more than a minor part of the 25(OH)D3 formed in this phase may not be absolutely to the point.
wherein the same correction regarding metabolism, as described above, was used for the obese and for the normal individuals, viz. 1.5 ng/mL at 15 hours and 3.5 ng/mL at 24 hours, respectively. These values come from FIG. 7B and are charged with a significant uncertainty—due to the significant experimental error in the early part of the respective curves. But they make sense, if inspecting the subsequent increase which can be more reliably determined. […]
The following relates to the coverage of the surface of adipocytes with vitamin D3. […] A homogenous cell diameter of 50 μm was determined to deliver about the same overall cell-surface one calculates by working with the rather wide experimental distribution of cell sizes as reported by Karin G. Stenkula et al. Thereby it was in the sense of a model consideration assumed that cubes containing large lipid droplet cubes can be used to describe the cells' shape (in other words: cubes of an edge-length of 50 μm enclosing cubes of about the same size were determined to represent a reasonable model for the description of the combined surface of the variable size cells' with their lipid droplets). […]

C=C1CC[C@H](O)C/C1=C/C=C1\CCC[C@]2(C)[C@@H]([C@H](C)CCCC(C)C)CC[C@@H]12 [vitamin D3, cholecalciferol]
R, deposition in fatty tissues in high BMI versus low BMI subjects (after 2½ days, from difference to Cmax and differing blood volumes): 1.05 times | amount of vitamin D3 deposited in the first 24 hours (healthy obese subjects): 92.5 µg | deposition of vitamin D3 (low BMI group, after 2½ days): ~7400 I.U. | amount of vitamin D3 deposited in the first 24 hours (normal subjects): 62.5 µg | deposition in healthy obese versus normal low BMI subjects (time point of 15 hours): 1.5 times
